Measurements as given in patent US5358971A, “Substituted 2-aminotetralins” (Whitby Research, Inc., priority 1993, dated 1994).
Where a name gives a salt, the structure may show the parent alone.

Experiments:
dopamine D2 receptors = dopamine D2 receptors (Bos taurus, UniProt P20288); test: Radioligand binding to dopamine D2 receptors ([3H]-Spiperone, bovine caudate nuclei); conditions: for Ki / D2 (pK1): bovine caudate nuclei, [3H]-Spiperone, 75 minutes at room temperature, 30 nM ketanserin, two-site fitted model; for Ki: read-out: D2 (pK1) (converted)
Procedure: (§1) Radioligand Binding Experiments (Dopamine Receptor Affinity Information; pK1 values):
(§2) Bovine brains were obtained fresh from a local slaughterhouse. The caudate nuclei were dissected out and homogenized in Buffer A (50 mM Tris; 1 mM Na2 -EDTA; 5 mM KCl; 1 mM MgCl2; 2 mM CaCl2; pH 7.4) using a Brinkmann Polytron. The homogenate was centrifuged at 40,000×g for 20 minutes and washed once. The pellet was resuspended in Buffer A, incubated at 37° C. for 15 minutes, then centrifuged. The pellet was washed once more, resuspended to a protein concentration of 5-10 mg/ml in Buffer A and frozen at -70° C. until used.
(§3) To test binding of the compounds to dopamine receptors, the following tritiated drugs were used as radioligands for each of the receptors tested: [^3 H]-Spiperone 21-24 Ci/mmol for D2 receptors and [^3 H]-SCH23390 75-85 Ci/mmol for D1 receptors. The radioligands were incubated with various concentrations of competing drug and bovine membranes for the following times: 75 minutes at room temperature for D2 receptors, and 15 minutes at 37° C. for D1 receptors. Specific binding was defined using 1 μM butaclamol (D2) and 1 μM SCH 23390 (D1). In addition, the D2 assays contained 30 nM ketanserin in order to block the binding of [^3 H]-spiperone to 5-HT2 receptors.
(§4) The assays were terminated by filtration using a 24-port Brandell cell harvester over filters that had been previously soaked in 0.1% polyethyleneimine, and the filters were washed three times by filtration of cold buffer. The filters were then placed in 5 ml scintillation vials to which 4 ml of Beckman Ready-Protein was then added, and each vial was counted for 2 minutes in a Beckman 3801 scintillation counter calibrated for conversion of cpm to dpm. Binding data were analyzed using the Ligand program of Munson and Rodbard (1980). The results are presented as pK1 values in a two-site fitted model.
as §2, with “To test binding to dopamine receptors, the bovine caudate nuclei assay was employed. Bovine” for “Bovine”, “mMMgCl2;” for “mM MgCl2;”, “Brinkman” for “Brinkmann”
(§5) The following tritiated drugs were used as radioligands for each of the receptors tested: [^3 H]-Spiperone 21-24 Ci/mmol for D2 receptors and [^3 H]-SCH23390 75-85 Ci/mmol for D1 receptors. The radioligands were incubated with various concentrations of competing drug and the appropriate membrane source for periods of time as follows: 75 minutes at room temperature for D2 receptors or 15 minutes at 37° C. for D1 receptors. Specific binding was defined using 1 μM butaclamol (D2) or 1 μM SCH23390 (D1). In addition, the D2 assays contained 30nM ketaserin in order to block the binding of ^3 H-spiperone to 5HT2 receptors.
as §4, with “as Ki” for “as pK1”, “values if the data were best fitted to a one-site model, or as Kh and K1 values if” for “values in”, “two-site model produced the better fit.” for “two-site fitted model.”

dopamine D1 receptors = dopamine D1 receptors (Bos taurus, UniProt Q95136); test: Radioligand binding to dopamine D1 receptors ([3H]-SCH23390, bovine caudate nuclei); conditions: 15 minutes at 37° C., two-site fitted model; for Ki: read-out: D1 (pK1) (converted)
Procedure: as §1, §2, §3, §4
as §2, with “To test binding to dopamine receptors, the bovine caudate nuclei assay was employed. Bovine” for “Bovine”, “mMMgCl2;” for “mM MgCl2;”, “Brinkman” for “Brinkmann”
as §5
as §4, with “as Ki” for “as pK1”, “values if the data were best fitted to a one-site model, or as Kh and K1 values if” for “values in”, “two-site model produced the better fit.” for “two-site fitted model.”

dopamine receptor = conditions: prior art, in words; cited from earlier work
dopamine D2 = conditions: reference compound, in words; cited from earlier work

Sequence of dopamine D2 receptors (P20288 whole entry): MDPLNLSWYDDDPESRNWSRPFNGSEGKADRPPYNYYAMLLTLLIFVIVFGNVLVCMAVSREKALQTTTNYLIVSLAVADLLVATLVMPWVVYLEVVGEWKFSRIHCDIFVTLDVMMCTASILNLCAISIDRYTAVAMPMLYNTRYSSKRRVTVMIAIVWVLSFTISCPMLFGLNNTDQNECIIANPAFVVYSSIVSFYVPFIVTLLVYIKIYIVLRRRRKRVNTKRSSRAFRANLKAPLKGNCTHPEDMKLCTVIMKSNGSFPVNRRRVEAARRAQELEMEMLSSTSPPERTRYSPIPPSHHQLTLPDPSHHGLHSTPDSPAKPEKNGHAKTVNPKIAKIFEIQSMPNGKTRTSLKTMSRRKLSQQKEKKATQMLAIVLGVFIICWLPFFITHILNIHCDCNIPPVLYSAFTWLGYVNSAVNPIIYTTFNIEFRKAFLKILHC
Sequence of dopamine D1 receptors (Q95136 whole entry): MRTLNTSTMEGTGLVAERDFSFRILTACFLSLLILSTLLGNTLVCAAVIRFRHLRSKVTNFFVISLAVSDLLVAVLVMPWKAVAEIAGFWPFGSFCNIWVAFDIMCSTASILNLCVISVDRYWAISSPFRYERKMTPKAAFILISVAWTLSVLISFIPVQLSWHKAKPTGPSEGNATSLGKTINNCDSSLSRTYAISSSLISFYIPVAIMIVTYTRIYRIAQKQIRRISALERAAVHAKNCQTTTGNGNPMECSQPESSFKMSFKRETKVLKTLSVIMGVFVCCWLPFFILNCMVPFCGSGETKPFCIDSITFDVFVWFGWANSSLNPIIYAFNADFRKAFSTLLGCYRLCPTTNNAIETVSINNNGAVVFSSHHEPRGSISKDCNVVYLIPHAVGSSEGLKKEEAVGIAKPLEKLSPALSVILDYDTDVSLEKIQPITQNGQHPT

| SMILES | Ki (dopamine D2 receptors) | Ki (dopamine D1 receptors) | also measured |
| --- | --- | --- | --- |
| CCCN(CCC1OC(=O)c2ccccc21)C1CCc2c(O)cccc2C1 (stereo not shown) [Example 9, 3-[2-[propyl(1,2,3,4-tetrahydro-5-hydroxy-2-naphthalenyl)amino]ethyl]-l(3H)-isobenzofuranone] | 66.1 nM | 2140 nM |  |
| CCCN(CCOc1ccccc1)C1CCc2c(O)cccc2C1 (stereo not shown) [Example 2, 2-[N-n-propyl,N-2-(phenyloxy)ethylamino]-5-hydroxytetralin] | 126 nM | 12000 nM | affinity for binding to dopamine D2 receptors (dopamine D2 receptors; in words): high affinity; selectivity for binding to dopamine D2 receptors (dopamine D2 receptors; in words): high affinity and selectivity |
| CCCN(CCOc1ccccc1)C1CCc2c(O)cccc2C1 (single isomer, unassigned; (-)) [Example 30, (-)-5,6,7,8-tetrahydro-6-[(2-phenoxyethyl)propylamino]-1-naphthalenol] | 170 nM | 8710 nM |  |
| CN1CCc2cccc3c2[C@H]1Cc1ccc(O)c(O)c1-3 [apomorphine] |  |  | dopaminergic activity (dopamine receptor): high activity |
| CCCN(CCC1OCc2ccccc21)C1CCc2c(O)cccc2C1 (stereo not shown) [Example 46, 6-[[2-(1,3-dihydro-1-isobenzofuranyl)-ethyl]propylamino]-5,6,7,8-tetrahydro-1-naphthalenol] |  |  | D2 (pK1) (dopamine D2 receptors): 6.77; D1 (pK1) (dopamine D1 receptors): 5.14 |
| CCCN(CCc1cccs1)C1CCc2c(O)cccc2C1 (racemic) [Example N-0437, reference compound] |  |  | D2 (pK1) (dopamine D2 receptors): 6.96; dopamine D2 agonist (dopamine D2): potent dopamine D2 agonist |
| CCCN(CC(c1ccccc1)c1ccccc1)C1CCc2c(O)cccc2C1 (stereo not shown) [Example 12, 2-[N-n-propyl,N-2,2-diphenylethylamino]-5-hydroxytetralin] | 46.8 nM | 9120 nM |  |
| CCCN(CC[C@H]1OC(=O)c2ccccc21)[C@H]1CCc2c(O)cccc2C1 [Example 36, (S,R)-3-[2-[propyl(1,2,3,4-tetrahydro-5-hydroxy-2-naphthalenyl)amino]ethyl]-l(3H)-isobenzofuranone] |  |  | D2 (pK1) (dopamine D2 receptors): 6.85; D1 (pK1) (dopamine D1 receptors): 6.56 |
| CCCN(CCOc1ccc2ccccc2c1)C1CCc2c(O)cccc2C1 (stereo not shown) [Example 32, 5,6,7,8-tetrahydro-6-[(2-(2-naphthalenyloxy)ethyl]propylamino]-1-naphthalenol] | 2630 nM | 4170 nM |  |
| CCCN(CC[C@@H]1OC(=O)c2ccccc21)[C@H]1CCc2c(O)cccc2C1 [Example 37, (S,S)-3-[2-[propyl(1,2,3,4-tetrahydro-5-hydroxy-2-naphthalenyl)amino]ethyl]-1(3H)-isobenzofuranone] | 123 nM | 1230 nM |  |
| CCCN(CCC(c1ccccc1)c1ccccc1)C1CCc2c(O)cccc2C1 (stereo not shown) [Example 14, 2-[N-n-propyl,N-3,3-diphenyipropylamino]-5-hydroxytetralin] | 339 nM | 1380 nM |  |

Now from value to molecule, other results behind:

| Ki (dopamine D2 receptors) | Ki (dopamine D1 receptors) | SMILES | also measured |
| --- | --- | --- | --- |
| 1150 nM | 13500 nM | CCCN(CCOc1cccc2ccccc12)C1CCc2c(O)cccc2C1 (stereo not shown) [Example 48, 5,6,7,8-tetrahydro-6-[[2-(1-naphthalenyloxy)ethyl]propylamino]-1-naphthalenol hydrochloride] |  |
| 79.4 nM | 1290 nM | CCCN(CCSc1ccccc1)C1CCc2c(O)cccc2C1 (stereo not shown) [Example 34, 5,6,7,8-tetrahydro-6-[(2-thiophenoxyethyl)propylamino]-1-naphthalenol] |  |
| 316 nM | 10500 nM | CCCN(CCOc1cccc(F)c1)C1CCc2c(O)cccc2C1 (stereo not shown) [Example 45, 5,6,7,8-tetrahydro-6-[[2(3-fluorophenoxy)ethyl]propylamino]-1-naphthalenol] |  |
| 813 nM | 12300 nM | CCCN(CCOc1ccccc1)C1CCc2ccc(O)cc2C1 (stereo not shown) [Example 39, 5,6,7,8-tetrahydro-6-[(2-phenoxylethyl)-propylamino]-3-naphthalenol] |  |
